Tests used:
RII = target: T1, RII (Homo sapiens, UniProt P13861); assay: Co-immunoprecipitation with RII in transfected HEK293 cells; assay type: cell-based; details: HEK293 cells transfected with GFP-fusion constructs
T1 construct: endogenous in cells; host or cells: HEK293
Procedure: HEK293 cells at […] were transfected with ten μg of plasmid DNA (GFP, GFP-MEME3 or GFP-Scrambled MEME3) by using the CaCl2 method. Cells were lysed after 30 hours in lysis buffer (20 mM Hepes, pH 7.5/150 mM NaCl/1 mM EDTA/1% Triton X-100) with protease inhibitors (Complete Mini, EDTA-free tablets, Roche).
Immunoblot analysis. Immunocomplexes and lipid raft fractions were analysed on a 10, 15% or 4-20% PAGE and blotted onto PVDF membranes. The filters were blocked in 5% non-fat dry milk in TBST for 30 minutes at RT, incubated 1 hour at RT (or overnight at 4° C.) with primary antibodies, washed four times 5 minutes in TBST with 0.1% Tween-20 and incubated with a horseradish-peroxidase-conjugated secondary antibody. Blots were developed by using Supersignal West Dura Extended Duration Substrate or Supersignal West Pico substrate (Pierce).
Antibodies. RI or RII were immunoprecipitated with polyclonal antibodies against human RI or human RII at a 3 μg/ml dilution (Santa Cruz Biotechnology). MEME3 or scrambled peptide was immunoprecipitated with 1.5 μl of anti-GFP antiserum (Invitrogen). […]
Immunocomplexes were analysed on 10% PAGE (B and C) or 15% PAGE (D) and subjected to Western blotting using anti-GFP, anti-RI or anti-RII as indicated and blotted onto PVDF membranes. […]

RIIα = target: T2, RIIα (Mus musculus, UniProt P12367); assay: Fluorescence polarization, dissociation constant for RII; assay type: binding; details: qualitative
T2 construct: His tag; made in house; host or cells: E. coli BL21 (B121 [sic])
T2 sequence (P12367 whole entry): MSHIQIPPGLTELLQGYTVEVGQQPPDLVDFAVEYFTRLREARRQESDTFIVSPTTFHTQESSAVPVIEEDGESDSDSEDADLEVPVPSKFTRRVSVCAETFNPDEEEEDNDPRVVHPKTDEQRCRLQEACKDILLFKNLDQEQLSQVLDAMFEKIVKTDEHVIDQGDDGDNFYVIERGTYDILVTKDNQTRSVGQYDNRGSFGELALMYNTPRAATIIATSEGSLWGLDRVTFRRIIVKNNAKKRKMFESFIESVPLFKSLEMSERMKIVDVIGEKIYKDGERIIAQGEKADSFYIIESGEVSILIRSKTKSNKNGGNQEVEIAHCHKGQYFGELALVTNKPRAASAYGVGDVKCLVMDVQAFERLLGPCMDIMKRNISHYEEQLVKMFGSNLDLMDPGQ
Procedure: Fluorescence Polarization. FITC-labeled peptides (SynPep, San Diego) that were used for fluorescence polarization studies included MEME3 (LEQYANQLADQIIKEATEK(5-Carboxyfluorescein)-CONH2) and MEME3 scrambled peptide (IEKELAQQYQNADAITLEK(5-Carboxyfluorescein)-CONH2). Peptides (0.5 nM for RI experiments and 1 nM for RII experiments) were suspended to working dilutions in phosphate-buffered saline containing 5 μg/μl BSA, pH 7.0. Increasing concentrations of recombinant bovine RI wt or recombinant murine RII were added to a PBS solution and mixed with each FITC-labeled peptide. Each sample was incubated for 2.5 hours. Fluorescence polarization was measured on a Beacon 2000 (Panvera, Madison, Wis.), following the manufacturer's instructions. Saturation binding curves were generated with PRISM graphing software (GraphPad, San Diego). Dissociation constants (Kd) were calculated from the nonlinear regression curve from averages of minimum three individual experiments.
Protein expression and purification. Human RI, Bovine RI and N-terminal deletions thereof or murine RII was expressed in E. coli B121 by IPTG induction. The RI containing pellet was incubated in lysis buffer (10 mM MOPS, pH 6.5, 100 mM NaCl, 10 μM DTT added protease inhibitors) and sonicated (Branson Sonifier 250) for 1 minute in three intervals at 0° C. […]

T1 sequence (P13861 whole entry, the tested form may be a part): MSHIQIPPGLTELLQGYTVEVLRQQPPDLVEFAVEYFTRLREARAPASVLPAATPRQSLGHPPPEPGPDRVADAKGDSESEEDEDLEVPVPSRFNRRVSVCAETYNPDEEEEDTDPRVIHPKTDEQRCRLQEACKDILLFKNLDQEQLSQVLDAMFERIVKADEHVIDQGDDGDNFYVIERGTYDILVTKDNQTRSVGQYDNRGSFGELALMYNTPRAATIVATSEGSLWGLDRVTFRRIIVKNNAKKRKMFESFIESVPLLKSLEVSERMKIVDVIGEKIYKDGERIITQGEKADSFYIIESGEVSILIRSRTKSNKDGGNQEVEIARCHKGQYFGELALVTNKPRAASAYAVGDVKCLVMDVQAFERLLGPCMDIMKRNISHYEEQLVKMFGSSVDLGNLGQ

| Molecule | co-precipitation with RII (RII) | interaction with RII subunit (RIIα) |
| --- | --- | --- |
| CC[C@H](C)[C@H](NC(=O)[C@H](CCC(N)=O)NC(=O)[C@H](CC(=O)O)NC(=O)[C@H](C)NC(=O)[C@H](CC(C)C)NC(=O)[C@H](CCC(N)=O)NC(=O)[C@H](CC(N)=O)NC(=O)[C@H](C)NC(=O)[C@H](Cc1ccc(O)cc1)NC(=O)[C@H](CCC(N)=O)NC(=O)[C@H](CCC(=O)O)NC(=O)[C@@H](N)CC(C)C)C(=O)N[C@H](C(=O)N[C@@H](CCCCN)C(=O)N[C@@H](CCC(=O)O)C(=O)N[C@@H](C)C(=O)N[C@H](C(=O)N[C@@H](CCC(=O)O)C(=O)N[C@@H](CCCCNC(=O)c1ccc2c(c1)C(=O)OC21c2ccc(O)cc2Oc2cc(O)ccc21)C(N)=O)[C@@H](C)O)[C@@H](C)CC [MEME3] | not with RII | – |
| IEKELAQQYQNADAITLE [SM3, scrambled MEME3 negative control peptide, reference compound] | – | did not interact with either R subunit |
